From patent publication US20110124888A1, “STYRYLBENZOFURAN DERIVATIVES AS INHIBITORS FOR BETA-AMYLOID FIBRIL FORMATION AND PREPARATION METHOD THEREOF” (Korea Institute of Science and Technology, priority 2008, published 2011) come the findings set out here.

The term IC50 denotes the midpoint of a concentration-inhibition curve. As a reminder, the Tmax is the time from dosing to the highest level.

Where two headings read alike, the source gives them in different places.

The target in data set [1] is hERG potassium ion channel (Homo sapiens, UniProt Q12809). In words: Inhibitory effect on hERG potassium ion channel (whole-cell patch clamp, HEK-hERG cells). It counts as cell-based. The note with it: for IC50: whole-cell patch clamp, room temperature, mean ± standard error, read-out: Inhibitory efficacy (IC50). The procedure: 1) Model Cell Line and Culture
A HEK-hERG cell line (lonGate Biosciences, Frankfurt, Germany Co.), which expresses hERG stably, was cultured in a DMEM (Dulbecco's Modified Eagle's Medium, Sigma Co., St. Louis, Mo., USA) supplemented with 10% fetal bovine serum (FBS, Cambrex, Walkersville, Md., USA) and 0.5 mg/mL zeocin (Invitrogen, Carlsbad, Calif., USA). The cell line was subcultured 5 days after culture when 80% confluency was reached.
2) Preparation of Test Solution and Test Drug
A solution within an electrode used to measure the potassium ion current is composed of 115 mM K-aspartate, 20 mM KCl, 10 mM EGTA, 10 mM HEPES, 2.5 mM tris-phosphocreatine, 0.1 mM Na2GTP and 5 mM MgCl2 (pH 7.2, 290 mOsm/Kg H2O). A solution for an extracellular perfusate is composed of 135 mM NaCl, 5 mM KCl, 1 mM MgCl2, 2 mM CaCl2, 10 mM glucose, and 10 mM HEPES (pH 7.2, 300 mOsm/Kg H2O).
Test drug solutions were prepared by respectively diluting the inventive compounds with extracellular perfusate to a desired concentration. The prepared test drug solution was placed in a 7-array polyethylene tube connected into a capillary column for gas chromatography and was dropped from the tip of the column at a height of 100 μm or less to the HEK-hERG cell line.
3) Measurement of Ion Current
Potassium ion current was measured using EPC10 (Instrutech Co., NY, USA) patch clamp amplifier in accordance with the conventional whole-cell patch clamp method. Electrode used in the measurement was a borosilicate glass capillary (external diameter: 1.65 mm, inside diameter: 1.2 mm, Corning 7052, Gamer Glass Co., Claremont, Calif., USA) prepared by using P-97 Flaming-Brown micropipette puller (Sutter Instrument Co.). The electrode was coated with Sylgard 184 (Dow Corning Co., Midland, Mich., USA) and trimmed with microforge (Narishige Co., Tokyo, Japan). […] A culture dish containing HEK-hERG cells was placed in an inverted microscope (Nikon Co.) and extracellular perfusate containing the inventive compound was perfused at a rate of 1-2 mL/min. The membrane capacitance and series resistance of cell membrane were calibrated by 80% or more and potassium ion current was measured at a sampling rate of 2 kHz and a low-pass filter of 2 kHz (−3 dB; 8-pole Bassel filter). The test is conducted at room temperature (21-24° C.).
4) Data analysis and Statistics
The results were analyzed using Pulse/Pulsefit (v9.0, HEKA Elcktronik, Lambrecht, Germany) and Igor macro. The results were given as meant standard error.

Data set [2] can be described thus: Passage test through the blood-brain barrier in mice (brain tissue). It counts as in vivo, ICR mice. The note with it: for Kp / Tmax: mouse; for Kp: brain; for Tmax / Cmax (brain): brain tissue. The procedure: 1) Test Animal and Administration of Test Compound
Three 7 week-old ICR mice (weight: about 30 g) and three 8 week-old SD rats (weight: about 250 g) were used per test group. A solution prepared by dissolving the compounds of Examples 9 and 17 in excipient (DMSO/Tween 20/saline: 0.1/0.6/2.3, v/v/v) were administered to each experimental animal. The test compound was orally administered in an amount of 10 mL per kg of body weight or intravenously administered in an amount of 5 mL per kg of body weight through the fine vein.
2) Measurement of Concentration in Blood and Tissue (Simultaneous Test)
At 30 min, 1 hr, 2 hr, 4 hr, 10 hr and 24 hr after administration of test compound, the mice and rats were subjected to insufflations narcosis using isoflorane, followed by cutting the abdomen open. 1 mL of blood was collected from abdominal veins into the tube containing heparin (1000 IU/mL, 3 μl). The obtained blood sample was centrifuged at 12,000 rpm, for 2 min to obtain plasma. The obtained plasma was kept in freezer at −80° C. until the analysis.
(2) Organ Tissue-Sampling
The mice and rats from which the blood sample was obtained were subjected to bloodletting, and then, brain tissue of the mice and rats was collected. The brain tissue thus obtained was washed with physiological saline once or twice to remove blood. The weight of the brain tissue was measured after the removal of adipose tissue and peripheral tissue. 4% bovine serum albumin (BSA) solution diluted with 10-fold was added to the brain tissue. The resulting solution was subjected to homogenization using the homogenizer. The diluted homogenate thus obtained was placed in 2 ml of tube and was kept in freezer at −80° C. until the analysis. All of the treatments to the samples were performed in ice.
The sample was analyzed using LC/MSMS system under the following condition:
The sample was pretreated as follows:
50 μL of plasma were placed in 2.0 mL of tube having a cap (Eppendorf Co.) and acidified by adding 20 μL of 0.1% formic acid thereto. An internal standard solution and 1 mL of ethyl acetate as an extract solvent were added to the resultant solution. The resultant solution was mixed using thermomixer (Eppendorf Co.) at 1400 rpm for 5 min and then subjected to centrifuge (Eppendorf Co.). The supernatant was collected and concentrated at 35° C. using cyclone. The residue was re-dissolved in 50 μL of moblie phase and 5 μL of the resulting solution was injected into LC/MS and analyzed.
In Tables 8 and 9, “iv” refers to a intravenous injection; “po” refers to a per oral; “AUC plasma” refers to an area under the plasma level-time curve; “Cmax” refers to a maximum plasma concentration; “Tmax” refers to a time to reach Cmax, “BA” refers to a bioavailability (%) according to Equation 2 below; “AUC Brain” refers to a area under the brain tissue level-time curve; and “AUCBrain/AUCPlasma” refers to a passage rate of the test compound to the brain.

[3] abbreviates: ICR (mice), SD (rats), mice and rats, Tables 8 and 9, read-out: passage ability through the blood-brain barrier compared with plasma.
Where [4] appears, read: ICR, mice, 1.25 mg/kg, iv, read-out: AUCBrain/AUC Plasma.
Setting [5] is: ICR, mice, 2.5 mg/kg, po, read-out: AUCBrain/AUC Plasma.

Chain of hERG potassium ion channel (Q12809 whole entry): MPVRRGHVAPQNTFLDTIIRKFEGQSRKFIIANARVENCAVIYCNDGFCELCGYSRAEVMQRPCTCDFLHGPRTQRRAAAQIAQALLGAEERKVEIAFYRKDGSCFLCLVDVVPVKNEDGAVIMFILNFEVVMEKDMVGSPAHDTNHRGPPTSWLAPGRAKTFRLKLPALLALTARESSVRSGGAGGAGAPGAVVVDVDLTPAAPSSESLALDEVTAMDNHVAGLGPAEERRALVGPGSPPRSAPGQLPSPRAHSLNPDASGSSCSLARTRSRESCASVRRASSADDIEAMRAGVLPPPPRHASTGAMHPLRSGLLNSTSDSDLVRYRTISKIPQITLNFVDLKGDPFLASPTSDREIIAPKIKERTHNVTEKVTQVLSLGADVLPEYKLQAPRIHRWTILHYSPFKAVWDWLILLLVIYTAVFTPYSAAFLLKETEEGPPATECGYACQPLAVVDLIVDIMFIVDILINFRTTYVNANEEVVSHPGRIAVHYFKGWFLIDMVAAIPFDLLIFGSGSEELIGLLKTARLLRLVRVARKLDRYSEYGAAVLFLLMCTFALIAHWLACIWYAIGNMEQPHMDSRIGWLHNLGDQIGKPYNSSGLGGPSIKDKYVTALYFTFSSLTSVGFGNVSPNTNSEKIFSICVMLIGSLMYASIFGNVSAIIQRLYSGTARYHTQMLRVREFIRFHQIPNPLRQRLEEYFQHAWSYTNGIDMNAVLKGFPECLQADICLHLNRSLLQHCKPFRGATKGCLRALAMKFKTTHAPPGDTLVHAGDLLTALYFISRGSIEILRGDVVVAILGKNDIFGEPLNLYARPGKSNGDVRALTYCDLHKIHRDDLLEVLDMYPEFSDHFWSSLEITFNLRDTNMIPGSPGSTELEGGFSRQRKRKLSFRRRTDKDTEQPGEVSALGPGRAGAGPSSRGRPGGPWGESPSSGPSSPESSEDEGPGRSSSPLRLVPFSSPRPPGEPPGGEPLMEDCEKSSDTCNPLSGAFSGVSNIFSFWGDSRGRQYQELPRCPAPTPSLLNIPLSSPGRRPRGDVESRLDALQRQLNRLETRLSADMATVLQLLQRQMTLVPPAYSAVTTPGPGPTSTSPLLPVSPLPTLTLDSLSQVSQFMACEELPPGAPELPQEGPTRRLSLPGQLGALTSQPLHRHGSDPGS

For the compound `COc1ccc2cc(C=Cc3ccc(N(C)C)cc3)oc2c1` [Compound 9, 6-methoxy-2-(4-dimethylaminostyryl)benzofuran], in data set [1], the “inhibitory efficacy on hERG potassium ion channel (in words)” value is “insignificant inhibitory efficacy”. Besides, the half-maximal inhibitory concentration (IC50) in data set [1] came out at 52.1 ± 3.68 µM. Further, the Kp is not below 1 in data set [2] (setting [3]), 12.1 in data set [2] (setting [4]) and 12.6 in data set [2] (setting [5]). In data set [2] (ICR, mice, 2.5 mg/kg, po), the Tmax came to 4 h. The “AUC Brain” value in data set [2] (mice, 1.25 mg/kg, iv) was found to be 6101.86 ng·h/mL; in data set [2] (mice, 2.5 mg/kg, po) it was 8137.42 ng·h/mL. Also, the “Cmax (brain)” value in data set [2] (mice, 2.5 mg/kg, po) was 899.33 ng/mL.
Regarding `CNc1ccc(C=Cc2cc3cc(OC)ccc3o2)cc1` [Compound 17, 5-methoxy-2-(4-methylaminostyryl)benzofuran], the “inhibitory efficacy on hERG potassium ion channel (in words)” value in data set [1] is listed as “insignificant inhibitory efficacy”. Moreover, in data set [1], the IC50 was determined as 47.9 ± 5.26 µM. Besides, the Kp in data set [2] (setting [3]) is not below 1; in data set [2] (setting [4]) it was 10.6; in data set [2] (setting [5]), 7.2. Besides, the Tmax in data set [2] (ICR, mice, 2.5 mg/kg, po) turned out to be 2 h. The “AUC Brain” value worked out at 2525.45 ng·h/mL in data set [2] (mice, 1.25 mg/kg, iv) and 2354.58 ng·h/mL in data set [2] (mice, 2.5 mg/kg, po). In data set [2] (mice, 2.5 mg/kg, po), the “Cmax (brain)” value was found to be 462.67 ng/mL.
